Assay results reported in ChEMBL document CHEMBL4033793, “Potent and Selective Inhibitors of Human Sirtuin 5” (J Med Chem, 2018).
Residues, ends and D or L forms follow the SMILES beside them. *: point of attachment. X13 = O=C(O)[C@@H](CC(=O)*)SCc1cccc([N+](=O)[O-])c1; X27 = O=C(O)[C@H](CC(=O)*)SCc1ccc([N+](=O)[O-])cc1; X65 = O=C(O)[C@H](CC(=O)*)SCc1cccc([N+](=O)[O-])c1; X46 = CC(C)(C)c1ccc(CS[C@@H](CC(=O)*)C(=O)O)cc1; X71 = O=C(O)[C@@H](CC(=O)*)SCc1cccc(C(F)(F)F)c1; X15 = CC(C)(C)c1ccc(CS[C@H](CC(=O)*)C(=O)O)cc1; X49 = O=C(O)[C@H](CC(=O)*)SCc1cccc(C(F)(F)F)c1; X56 = Cc1cc(C)c(CS[C@H](CC(=O)*)C(=O)O)c(C)c1; X16 = O=C(O)[C@H](CC(=O)*)SCc1ccc(Cl)c(Cl)c1; X39 = O=C(O)[C@H](CC(=O)*)Sc1cc(Cl)cc(Cl)c1; X23 = O=C(O)[C@@H](CC(=O)*)Sc1cccc2ccccc12; X24 = O=C(O)[C@H](CC(=O)*)SCc1ccc(Cl)cc1Cl; X29 = COc1ccc(S[C@@H](CC(=O)*)C(=O)O)cc1OC; X36 = O=C(O)[C@@H](CC(=O)*)Sc1ccc2ccccc2c1; X41 = O=C(O)[C@@H](CC(=O)*)Sc1cc(Cl)ccc1Cl; X30 = COc1ccc(S[C@H](CC(=O)*)C(=O)O)cc1OC; X38 = O=C(O)[C@H](CC(=O)*)Sc1cccc2ccccc12; X59 = O=C(O)[C@@H](CC(=O)*)SCc1ccc(Cl)cc1; X66 = COc1ccc(CS[C@@H](CC(=O)*)C(=O)O)cc1; X10 = Cc1noc(C)c1CCS[C@H](CC(=O)*)C(=O)O; X57 = O=C(O)[C@@H](CC(=O)*)Sc1ccc(Cl)cc1; X48 = O=C(O)[C@@H](CC(=O)*)SCCCc1ccccc1; X68 = Cc1ccc(S[C@H](CC(=O)*)C(=O)O)cc1C; X73 = O=C(O)[C@H](CC(=O)*)SCc1ccccc1Cl; X69 = O=C(O)[C@@H](CC(=O)*)Sc1ccccc1; X45 = O=C(O)[C@H](CC(=O)*)SC1CCCCC1; X7 = O=C(O)C(CC(=O)*)SCCc1ccncc1; X4 = O=C(O)C(CC(=O)*)Cc1ccccc1; X42 = O=C(CCSc1ccc2ccccc2c1)*; Bz = O=C(c1ccccc1)*

The compounds below were run against NAD-dependent protein deacylase sirtuin-5, mitochondrial (Homo sapiens, UniProt Q9NXA8) (assay: Inhibition of human recombinant N-terminal Strep2-tagged SIRT5 expressed in Escherichia coli BL21 (DE3) using Abz-GVLK(glutaryl)AY(NO2)GV-NH2 as substrate in presence of NAD+ by fluorescence assay).
Sequence of NAD-dependent protein deacylase sirtuin-5, mitochondrial (Q9NXA8 whole entry): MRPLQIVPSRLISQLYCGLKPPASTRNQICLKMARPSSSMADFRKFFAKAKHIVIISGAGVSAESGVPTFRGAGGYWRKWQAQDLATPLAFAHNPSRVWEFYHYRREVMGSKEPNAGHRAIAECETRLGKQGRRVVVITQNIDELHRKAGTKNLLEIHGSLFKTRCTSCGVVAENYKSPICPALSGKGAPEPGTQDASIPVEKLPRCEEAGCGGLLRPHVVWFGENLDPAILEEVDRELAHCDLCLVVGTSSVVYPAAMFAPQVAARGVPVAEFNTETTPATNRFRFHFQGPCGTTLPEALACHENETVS

IC50	Ki	SMILES
1980 nM		CC(C)C[C@H](NC(=O)[C@@H](NC(=O)CNC(=O)c1ccccc1)C(C)C)C(=O)N[C@@H](CCCCNC(=O)C[C@@H](Sc1cc(Cl)ccc1Cl)C(=O)O)C(=O)N[C@@H](CCC(=O)O)C(=O)N[C@@H](Cc1ccc(O)cc1)C(=O)NCC(=O)N[C@H](C(N)=O)C(C)C (Bz-GVLK(X41)EYGV-NH2)
3730 nM		CC(C)C[C@H](NC(=O)[C@@H](NC(=O)CNC(=O)c1ccccc1)C(C)C)C(=O)N[C@@H](CCCCNC(=O)C[C@H](SCc1ccc([N+](=O)[O-])cc1)C(=O)O)C(=O)N[C@@H](CCC(=O)O)C(=O)N[C@@H](Cc1ccc(O)cc1)C(=O)NCC(=O)N[C@H](C(N)=O)C(C)C (Bz-GVLK(X27)EYGV-NH2)
1150 nM		CC(C)C[C@H](NC(=O)[C@@H](NC(=O)CNC(=O)c1ccccc1)C(C)C)C(=O)N[C@@H](CCCCNC(=O)C[C@@H](SCc1cccc(C(F)(F)F)c1)C(=O)O)C(=O)N[C@@H](CCC(=O)O)C(=O)N[C@@H](Cc1ccc(O)cc1)C(=O)NCC(=O)N[C@H](C(N)=O)C(C)C (Bz-GVLK(X71)EYGV-NH2)
1120 nM	263 nM	CC(C)C[C@H](NC(=O)[C@@H](NC(=O)CNC(=O)c1ccccc1)C(C)C)C(=O)N[C@@H](CCCCNC(=O)CC(Cc1ccccc1)C(=O)O)C(=O)N[C@@H](CCC(=O)O)C(=O)N[C@@H](Cc1ccc(O)cc1)C(=O)NCC(=O)N[C@H](C(N)=O)C(C)C (stereo partly specified) (Bz-GVLK(X4)EYGV-NH2)
2200 nM		CC(C)C[C@H](NC(=O)[C@@H](NC(=O)CNC(=O)c1ccccc1)C(C)C)C(=O)N[C@@H](CCCCNC(=O)C[C@@H](Sc1cccc2ccccc12)C(=O)O)C(=O)N[C@@H](CCC(=O)O)C(=O)N[C@@H](Cc1ccc(O)cc1)C(=O)NCC(=O)N[C@H](C(N)=O)C(C)C (Bz-GVLK(X23)EYGV-NH2)
1800 nM		CC(C)C[C@H](NC(=O)[C@@H](NC(=O)CNC(=O)c1ccccc1)C(C)C)C(=O)N[C@@H](CCCCNC(=O)C[C@@H](Sc1ccccc1)C(=O)O)C(=O)N[C@@H](CCC(=O)O)C(=O)N[C@@H](Cc1ccc(O)cc1)C(=O)NCC(=O)N[C@H](C(N)=O)C(C)C (Bz-GVLK(X69)EYGV-NH2)
1260 nM		Cc1ccc(S[C@H](CC(=O)NCCCC[C@H](NC(=O)[C@H](CC(C)C)NC(=O)[C@@H](NC(=O)CNC(=O)c2ccccc2)C(C)C)C(=O)N[C@@H](CCC(=O)O)C(=O)N[C@@H](Cc2ccc(O)cc2)C(=O)NCC(=O)N[C@H](C(N)=O)C(C)C)C(=O)O)cc1C (Bz-GVLK(X68)EYGV-NH2)
2060 nM		CC(C)C[C@H](NC(=O)[C@@H](NC(=O)CNC(=O)c1ccccc1)C(C)C)C(=O)N[C@@H](CCCCNC(=O)C[C@@H](SCCCc1ccccc1)C(=O)O)C(=O)N[C@@H](CCC(=O)O)C(=O)N[C@@H](Cc1ccc(O)cc1)C(=O)NCC(=O)N[C@H](C(N)=O)C(C)C (Bz-GVLK(X48)EYGV-NH2)
95 nM		CC(C)C[C@H](NC(=O)[C@@H](NC(=O)CNC(=O)c1ccccc1)C(C)C)C(=O)N[C@@H](CCCCNC(=O)C[C@H](Sc1cccc2ccccc12)C(=O)O)C(=O)N[C@@H](CCC(=O)O)C(=O)N[C@@H](Cc1ccc(O)cc1)C(=O)NCC(=O)N[C@H](C(N)=O)C(C)C (Bz-GVLK(X38)EYGV-NH2)
2670 nM		CC(C)C[C@H](NC(=O)[C@@H](NC(=O)CNC(=O)c1ccccc1)C(C)C)C(=O)N[C@@H](CCCCNC(=O)C[C@@H](SCc1cccc([N+](=O)[O-])c1)C(=O)O)C(=O)N[C@@H](CCC(=O)O)C(=O)N[C@@H](Cc1ccc(O)cc1)C(=O)NCC(=O)N[C@H](C(N)=O)C(C)C (Bz-GVLK(X13)EYGV-NH2)
1180 nM		CC(C)C[C@H](NC(=O)[C@@H](NC(=O)CNC(=O)c1ccccc1)C(C)C)C(=O)N[C@@H](CCCCNC(=O)C[C@@H](Sc1ccc2ccccc2c1)C(=O)O)C(=O)N[C@@H](CCC(=O)O)C(=O)N[C@@H](Cc1ccc(O)cc1)C(=O)NCC(=O)N[C@H](C(N)=O)C(C)C (Bz-GVLK(X36)EYGV-NH2)
> 4000 nM		CC(C)C[C@H](NC(=O)[C@@H](NC(=O)CNC(=O)c1ccccc1)C(C)C)C(=O)N[C@@H](CCCCNC(=O)C[C@H](SC1CCCCC1)C(=O)O)C(=O)N[C@@H](CCC(=O)O)C(=O)N[C@@H](Cc1ccc(O)cc1)C(=O)NCC(=O)N[C@H](C(N)=O)C(C)C (Bz-GVLK(X45)EYGV-NH2)
1050 nM		COc1ccc(CS[C@@H](CC(=O)NCCCC[C@H](NC(=O)[C@H](CC(C)C)NC(=O)[C@@H](NC(=O)CNC(=O)c2ccccc2)C(C)C)C(=O)N[C@@H](CCC(=O)O)C(=O)N[C@@H](Cc2ccc(O)cc2)C(=O)NCC(=O)N[C@H](C(N)=O)C(C)C)C(=O)O)cc1 (Bz-GVLK(X66)EYGV-NH2)
631 nM		Cc1cc(C)c(CS[C@H](CC(=O)NCCCC[C@H](NC(=O)[C@H](CC(C)C)NC(=O)[C@@H](NC(=O)CNC(=O)c2ccccc2)C(C)C)C(=O)N[C@@H](CCC(=O)O)C(=O)N[C@@H](Cc2ccc(O)cc2)C(=O)NCC(=O)N[C@H](C(N)=O)C(C)C)C(=O)O)c(C)c1 (Bz-GVLK(X56)EYGV-NH2)
2710 nM		CC(C)C[C@H](NC(=O)[C@@H](NC(=O)CNC(=O)c1ccccc1)C(C)C)C(=O)N[C@@H](CCCCNC(=O)C[C@H](SCc1cccc([N+](=O)[O-])c1)C(=O)O)C(=O)N[C@@H](CCC(=O)O)C(=O)N[C@@H](Cc1ccc(O)cc1)C(=O)NCC(=O)N[C@H](C(N)=O)C(C)C (Bz-GVLK(X65)EYGV-NH2)
793 nM		CC(C)C[C@H](NC(=O)[C@@H](NC(=O)CNC(=O)c1ccccc1)C(C)C)C(=O)N[C@@H](CCCCNC(=O)C[C@H](SCc1ccc(C(C)(C)C)cc1)C(=O)O)C(=O)N[C@@H](CCC(=O)O)C(=O)N[C@@H](Cc1ccc(O)cc1)C(=O)NCC(=O)N[C@H](C(N)=O)C(C)C (Bz-GVLK(X46)EYGV-NH2)
326 nM		COc1ccc(S[C@@H](CC(=O)NCCCC[C@H](NC(=O)[C@H](CC(C)C)NC(=O)[C@@H](NC(=O)CNC(=O)c2ccccc2)C(C)C)C(=O)N[C@@H](CCC(=O)O)C(=O)N[C@@H](Cc2ccc(O)cc2)C(=O)NCC(=O)N[C@H](C(N)=O)C(C)C)C(=O)O)cc1OC (Bz-GVLK(X29)EYGV-NH2)
1240 nM		CC(C)C[C@H](NC(=O)[C@@H](NC(=O)CNC(=O)c1ccccc1)C(C)C)C(=O)N[C@@H](CCCCNC(=O)C[C@@H](SCc1ccc(C(C)(C)C)cc1)C(=O)O)C(=O)N[C@@H](CCC(=O)O)C(=O)N[C@@H](Cc1ccc(O)cc1)C(=O)NCC(=O)N[C@H](C(N)=O)C(C)C (Bz-GVLK(X15)EYGV-NH2)
7400 nM		CC(=O)N[C@@H](CCCCNC(=O)C[C@H](Sc1ccc2ccccc2c1)C(=O)O)C(N)=O
86.1 nM		CC(C)C[C@H](NC(=O)[C@@H](NC(=O)CNC(=O)c1ccccc1)C(C)C)C(=O)N[C@@H](CCCCNC(=O)C[C@H](Sc1cc(Cl)cc(Cl)c1)C(=O)O)C(=O)N[C@@H](CCC(=O)O)C(=O)N[C@@H](Cc1ccc(O)cc1)C(=O)NCC(=O)N[C@H](C(N)=O)C(C)C (Bz-GVLK(X39)EYGV-NH2)
9080 nM		COc1ccc(S[C@H](CC(=O)NCCCC[C@H](NC(=O)[C@H](CC(C)C)NC(=O)[C@@H](NC(=O)CNC(=O)c2ccccc2)C(C)C)C(=O)N[C@@H](CCC(=O)O)C(=O)N[C@@H](Cc2ccc(O)cc2)C(=O)NCC(=O)N[C@H](C(N)=O)C(C)C)C(=O)O)cc1OC (Bz-GVLK(X30)EYGV-NH2)
740 nM		CC(C)C[C@H](NC(=O)[C@@H](NC(=O)CNC(=O)c1ccccc1)C(C)C)C(=O)N[C@@H](CCCCNC(=O)C[C@H](SCc1ccc(Cl)c(Cl)c1)C(=O)O)C(=O)N[C@@H](CCC(=O)O)C(=O)N[C@@H](Cc1ccc(O)cc1)C(=O)NCC(=O)N[C@H](C(N)=O)C(C)C (Bz-GVLK(X16)EYGV-NH2)
1610 nM		CC(C)C[C@H](NC(=O)[C@@H](NC(=O)CNC(=O)c1ccccc1)C(C)C)C(=O)N[C@@H](CCCCNC(=O)C[C@@H](Sc1ccc(Cl)cc1)C(=O)O)C(=O)N[C@@H](CCC(=O)O)C(=O)N[C@@H](Cc1ccc(O)cc1)C(=O)NCC(=O)N[C@H](C(N)=O)C(C)C (Bz-GVLK(X57)EYGV-NH2)
1120 nM		CC(C)C[C@H](NC(=O)[C@@H](NC(=O)CNC(=O)c1ccccc1)C(C)C)C(=O)N[C@@H](CCCCNC(=O)C[C@H](SCc1cccc(C(F)(F)F)c1)C(=O)O)C(=O)N[C@@H](CCC(=O)O)C(=O)N[C@@H](Cc1ccc(O)cc1)C(=O)NCC(=O)N[C@H](C(N)=O)C(C)C (Bz-GVLK(X49)EYGV-NH2)
> 40000 nM		CC(C)C[C@H](NC(=O)[C@@H](NC(=O)CNC(=O)c1ccccc1)C(C)C)C(=O)N[C@@H](CCCCNC(=O)CCSc1ccc2ccccc2c1)C(=O)N[C@@H](CCC(=O)O)C(=O)N[C@@H](Cc1ccc(O)cc1)C(=O)NCC(=O)N[C@H](C(N)=O)C(C)C (Bz-GVLK(X42)EYGV-NH2)
533 nM		CC(C)C[C@H](NC(=O)[C@@H](NC(=O)CNC(=O)c1ccccc1)C(C)C)C(=O)N[C@@H](CCCCNC(=O)C[C@H](SCc1ccccc1Cl)C(=O)O)C(=O)N[C@@H](CCC(=O)O)C(=O)N[C@@H](Cc1ccc(O)cc1)C(=O)NCC(=O)N[C@H](C(N)=O)C(C)C (Bz-GVLK(X73)EYGV-NH2)
18500 nM		Cc1noc(C)c1CCS[C@H](CC(=O)NCCCC[C@H](NC(=O)[C@H](CC(C)C)NC(=O)[C@@H](NC(=O)CNC(=O)c1ccccc1)C(C)C)C(=O)N[C@@H](CCC(=O)O)C(=O)N[C@@H](Cc1ccc(O)cc1)C(=O)NCC(=O)N[C@H](C(N)=O)C(C)C)C(=O)O (Bz-GVLK(X10)EYGV-NH2)
13200 nM		CC(C)C[C@H](NC(=O)[C@@H](NC(=O)CNC(=O)c1ccccc1)C(C)C)C(=O)N[C@@H](CCCCNC(=O)CC(SCCc1ccncc1)C(=O)O)C(=O)N[C@@H](CCC(=O)O)C(=O)N[C@@H](Cc1ccc(O)cc1)C(=O)NCC(=O)N[C@H](C(N)=O)C(C)C (stereo partly specified) (Bz-GVLK(X7)EYGV-NH2)
543 nM		CC(C)C[C@H](NC(=O)[C@@H](NC(=O)CNC(=O)c1ccccc1)C(C)C)C(=O)N[C@@H](CCCCNC(=O)C[C@H](SCc1ccc(Cl)cc1Cl)C(=O)O)C(=O)N[C@@H](CCC(=O)O)C(=O)N[C@@H](Cc1ccc(O)cc1)C(=O)NCC(=O)N[C@H](C(N)=O)C(C)C (Bz-GVLK(X24)EYGV-NH2)
1020 nM		CC(C)C[C@H](NC(=O)[C@@H](NC(=O)CNC(=O)c1ccccc1)C(C)C)C(=O)N[C@@H](CCCCNC(=O)C[C@@H](SCc1ccc(Cl)cc1)C(=O)O)C(=O)N[C@@H](CCC(=O)O)C(=O)N[C@@H](Cc1ccc(O)cc1)C(=O)NCC(=O)N[C@H](C(N)=O)C(C)C (Bz-GVLK(X59)EYGV-NH2)
